Data on 26 compounds can be found in patent publication US11332463B2, “Spiropiperidine allosteric modulators of nicotinic acetylcholine receptors” (Merck Sharp & Dohme Corp., priority 2018, dated 2022).

SMILES strings stand for the structures.

T1 sequence (P36544 23-502): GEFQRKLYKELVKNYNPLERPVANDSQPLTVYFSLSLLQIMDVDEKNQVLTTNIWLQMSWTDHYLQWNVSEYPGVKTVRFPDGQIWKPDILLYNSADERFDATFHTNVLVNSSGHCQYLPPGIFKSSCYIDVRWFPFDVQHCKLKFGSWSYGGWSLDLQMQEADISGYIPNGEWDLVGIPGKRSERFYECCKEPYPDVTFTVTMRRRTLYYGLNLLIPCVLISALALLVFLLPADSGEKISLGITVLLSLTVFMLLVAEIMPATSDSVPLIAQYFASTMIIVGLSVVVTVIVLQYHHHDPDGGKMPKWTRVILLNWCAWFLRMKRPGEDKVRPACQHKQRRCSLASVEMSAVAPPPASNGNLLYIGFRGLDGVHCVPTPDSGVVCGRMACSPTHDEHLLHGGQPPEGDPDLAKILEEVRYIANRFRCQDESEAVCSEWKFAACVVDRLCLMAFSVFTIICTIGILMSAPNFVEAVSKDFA

The first test addresses T1, human α7 nicotinic acetylcholine receptor (HEK cell line stably expressing human RIC-3 and human α7) (Homo sapiens, UniProt P36544).
T1 construct: host or cells: HEK cell line (PrecisION hnAChR α7/RIC-3)
As to the kind of experiment: Automated patch-clamp electrophysiology functional assay (Assay A), IonFlux HT, whole-cell population patch. It counts as cell-based. The note with it: HEK cells expressing human α7/RIC-3; test compound with or without 40 μM acetylcholine; holding potential −60 mV; room temperature; read-out: α7 nAChR Potency.
Consider `Cc1onc(C2CC2)c1-c1nnc([C@@H]2CC23CCN(S(N)(=O)=O)CC3)s1` [Example F12], for which the EC50 is 500 to 5000 nM.

Take `Cc1ccccc1-c1nnc([C@@H]2C(F)(F)C23CCN(S(N)(=O)=O)CC3)o1` [Example F13]: the EC50 is 100 to 500 nM.

Turning to `Cc1ccccc1-c1nnc([C@@H]2C(F)(F)C23CCN(S(N)(=O)=O)CC3)s1` [Example F14], the EC50 was 100 to 500 nM.

With `NS(=O)(=O)N1CCC2(CC1)C[C@H]2c1nc(-c2ccccc2)co1` [Example G1], the EC50 lay within 500 to 5000 nM.

For the compound `NS(=O)(=O)N1CCC2(CC1)C[C@H]2c1csc(-c2conc2C2CC2)n1` [Example G2], the EC50 was in the range of 500 to 5000 nM.

Turning to `Cc1noc(C)c1-n1cc([C@@H]2CC23CCN(S(N)(=O)=O)CC3)cn1` [Example G3], the EC50 was in the range of 500 to 5000 nM.

Take `NS(=O)(=O)N1CCC2(CC1)[C@H](c1csc(-c3conc3C3CC3)n1)C2(F)F` [Example G4]: the EC50 was in the range of 100 to 500 nM.

Take `NS(=O)(=O)N1CCC2(CC1)[C@H](c1ncc(-c3ccc(F)cc3C(F)(F)F)o1)C2(F)F` [Example G5]: the EC50 is less than 100 nM.

On to `NS(=O)(=O)N1CCC2(CC1)[C@H](c1cc(-c3ccnc(OC(F)F)c3)no1)C2(F)F` [Example G6], for which the EC50 was less than 100 nM.

For `Cn1cc(-c2conc2C2CC2)nc1[C@@H]1C(F)(F)C12CCN(S(N)(=O)=O)CC2` [Example G7], the EC50 fell in the range of 500 to 5000 nM.

Consider `NS(=O)(=O)N1CCC2(CC1)[C@H](c1cc(-c3conc3C3CC3)no1)C2(F)F` [Example G8], for which the EC50 is less than 100 nM.

Regarding `NS(=O)(=O)N1CCC2(CC1)[C@H](c1cc(-c3ccc(F)cc3C(F)(F)F)on1)C2(F)F` [Example G9], the EC50 is less than 100 nM.

Take `NS(=O)(=O)N1CCC2(CC1)[C@H](c1nc(-c3ccc(F)cc3C(F)(F)F)co1)C2(F)F` [Example G10]: the EC50 is less than 100 nM.

In the case of `NS(=O)(=O)N1CCC2(CC1)[C@H](c1cc(-c3ccc(F)cc3C(F)(F)F)ns1)C2(F)F` [Example G11], the EC50 was in the range of 100 to 500 nM.

Turning to `COc1ccc(Cl)cc1-c1noc([C@H]2CC23CCN(S(N)(=O)=O)CC3)n1` [Example H1], the EC50 was in the range of 5000 to 50000 nM.

For `NS(=O)(=O)N1CCC2(CC1)[C@@H](c1nc(-c3ccc(F)cc3C(F)(F)F)no1)C2(F)F` [Example H2], the EC50 is 500 to 5000 nM.

Turning to `NS(=O)(=O)N1CCC2(CC1)[C@@H](c1nc(C3CCCCC3)no1)C2(F)F` [Example H3], the EC50 was 500 to 5000 nM.

Consider `NS(=O)(=O)N1CCC2(CC1)[C@@H](c1nc(-c3cccc(F)c3)no1)C2(F)F` [Example H4], for which the EC50 fell in the range of 500 to 5000 nM.

Take `Cc1ccccc1-c1noc([C@H]2C(F)(F)C23CCN(S(N)(=O)=O)CC3)n1` [Example H5]: the EC50 lay within 500 to 5000 nM.

As for `Cc1ccccc1-c1nnc([C@H]2C(F)(F)C23CCN(S(N)(=O)=O)CC3)s1` [Example H6], the EC50 was 500 to 5000 nM.

For `NS(=O)(=O)N1CCC2(C(F)C1)C(c1nc(-c3ccc(F)cc3C(F)(F)F)no1)C2(F)F` (stereo not drawn) [Example I15], the EC50 lay in the range of 500 to 5000 nM.

For `NS(=O)(=O)N1CCC2(C(F)C1)C(c1nc(-c3ccc(F)cc3C(F)(F)F)no1)C2(F)F` (stereo not drawn) [Example I16], the EC50 was in the range of 500 to 5000 nM.

`NS(=O)(=O)N1CCC2(C(F)C1)C(c1nc(-c3ccc(F)cc3C(F)(F)F)no1)C2(F)F` (stereo not drawn) [Example I17]: the EC50 was 500 to 5000 nM.

For `NS(=O)(=O)N1CCC2(C(F)C1)C(c1nc(-c3ccc(F)cc3C(F)(F)F)no1)C2(F)F` (stereo not drawn) [Example I18], the EC50 fell in the range of 100 to 500 nM.

The test is the same for the next values; noted with them: automated patch-clamp electrophysiology functional assay (Assay A); read-out: α7 nAChR EC50.
Turning to `Cc1onc(C2CC2)c1-c1nnc([C@@H]2CC23CCN(S(N)(=O)=O)CC3)s1` [Example F12], the EC50 was found to be 850 nM.

`Cc1ccccc1-c1nnc([C@@H]2C(F)(F)C23CCN(S(N)(=O)=O)CC3)o1` [Example F13]: the EC50 was 400 nM.

`Cc1ccccc1-c1nnc([C@@H]2C(F)(F)C23CCN(S(N)(=O)=O)CC3)s1` [Example F14]: the EC50 was found to be 290 nM.

With `NS(=O)(=O)N1CCC2(CC1)C[C@H]2c1nc(-c2ccccc2)co1` [Example G1], the EC50 was 4000 nM.

Take `NS(=O)(=O)N1CCC2(CC1)C[C@H]2c1csc(-c2conc2C2CC2)n1` [Example G2]: the EC50 amounted to 910 nM.

Regarding `NS(=O)(=O)N1CCC2(CC1)[C@H](c1csc(-c3conc3C3CC3)n1)C2(F)F` [Example G4], the EC50 was 110 nM.

In the case of `NS(=O)(=O)N1CCC2(CC1)[C@H](c1ncc(-c3ccc(F)cc3C(F)(F)F)o1)C2(F)F` [Example G5], the EC50 is 91 nM.

Regarding `NS(=O)(=O)N1CCC2(CC1)[C@H](c1cc(-c3ccnc(OC(F)F)c3)no1)C2(F)F` [Example G6], the EC50 is 86 nM.

As for `Cn1cc(-c2conc2C2CC2)nc1[C@@H]1C(F)(F)C12CCN(S(N)(=O)=O)CC2` [Example G7], the EC50 was determined as 1600 nM.

With `NS(=O)(=O)N1CCC2(CC1)[C@H](c1cc(-c3conc3C3CC3)no1)C2(F)F` [Example G8], the EC50 came out at 16 nM.

In the case of `NS(=O)(=O)N1CCC2(CC1)[C@H](c1cc(-c3ccc(F)cc3C(F)(F)F)on1)C2(F)F` [Example G9], the EC50 is 78 nM.

For the compound `NS(=O)(=O)N1CCC2(CC1)[C@H](c1nc(-c3ccc(F)cc3C(F)(F)F)co1)C2(F)F` [Example G10], the EC50 is 28 nM.

For the compound `NS(=O)(=O)N1CCC2(CC1)[C@H](c1cc(-c3ccc(F)cc3C(F)(F)F)ns1)C2(F)F` [Example G11], the EC50 was 120 nM.

Take `NS(=O)(=O)N1CCC2(CC1)[C@@H](c1nc(-c3ccc(F)cc3C(F)(F)F)no1)C2(F)F` [Example H2]: the EC50 worked out at 2900 nM.

For `NS(=O)(=O)N1CCC2(CC1)[C@@H](c1nc(C3CCCCC3)no1)C2(F)F` [Example H3], the EC50 was 4500 nM.

Take `NS(=O)(=O)N1CCC2(CC1)[C@@H](c1nc(-c3cccc(F)c3)no1)C2(F)F` [Example H4]: the EC50 was 1200 nM.

As to `Cc1ccccc1-c1nnc([C@H]2C(F)(F)C23CCN(S(N)(=O)=O)CC3)s1` [Example H6], the EC50 came out at 3400 nM.

Take `NS(=O)(=O)N1CCC2(C(F)C1)C(c1nc(-c3ccc(F)cc3C(F)(F)F)no1)C2(F)F` (stereo not drawn) [Example I15]: the EC50 was 1400 nM.

Consider `NS(=O)(=O)N1CCC2(C(F)C1)C(c1nc(-c3ccc(F)cc3C(F)(F)F)no1)C2(F)F` (stereo not drawn) [Example I16], for which the EC50 stood at 2100 nM.

Take `NS(=O)(=O)N1CCC2(C(F)C1)C(c1nc(-c3ccc(F)cc3C(F)(F)F)no1)C2(F)F` (stereo not drawn) [Example I18]: the EC50 is 320 nM.

Still in this test, the particulars now being: α7 nAChR EC50 (nM), automated patch-clamp electrophysiology functional assay (Assay A).
As for `NS(=O)(=O)N1CCC2(CC1)C[C@H]2c1nnc(-c2cccc(OC(F)F)c2)s1` [Example F10], the EC50 came out at 450 nM.

Regarding `Cc1onc(C2CC2)c1-c1nnc([C@@H]2CC23CCN(S(N)(=O)=O)CC3)o1` [Example F11], the EC50 came to 410 nM.

The same test, now with this note: α7 nAChR Potency, HEK cells expressing human α7/RIC-3; test compound with or without 40 μM acetylcholine; holding potential −60 mV; room temperature.
Regarding `NS(=O)(=O)N1CCC2(CC1)C[C@H]2c1nnc(-c2cccc(OC(F)F)c2)s1` [Example F10], the EC50 fell in the range of 100 to 500 nM.

With `Cc1onc(C2CC2)c1-c1nnc([C@@H]2CC23CCN(S(N)(=O)=O)CC3)o1` [Example F11], the EC50 lay within 100 to 500 nM.
